{
  "source": "patent US7235263B2",
  "about": "“Processes for controlling microbial organic compound production” (Kimberly-Clark Worldwide, Inc., priority 2001, dated 2007)",
  "key": {"[1]": {"system": "Proteus mirabilis (ATCC 29906)", "assay": "Ammonia production by facultatively grown Proteus mirabilis in urine:TSB (ammonia probe)", "assay_type": "cell-based", "settings": "for % Reduction of Ammonia: vs urine:TSB:facultative without mannitol peroxide", "protocol": "(§1) Proteus mirabilis was taken from a TSB culture (described in (1) above) and grown under various conditions for use in the Examples. For bacteria to be grown under aerobic conditions, 50 microliters of Proteus mirabilis was taken from a TSB culture prepared as described above and inoculated into a 50 mL volume of a freshly made 9:1 (by volume) pooled adult female urine:TSB mixture into a 250 mL shake flask. This mixture was rotated at 250 rpm at 37° C. overnight to grow the bacteria. For bacteria to be grown under facultative conditions, 10 microliters of Proteus mirabilis was taken from a TSB culture prepared as described above and inoculated into a 10 mL volume of a freshly made 9:1 (by volume) pooled adult female urine:TSB mixture into a 15 mL tube. The tube was loosely fitted with a screw cap, and held stationary at 37° C. overnight to grow the bacteria. For bacteria to be grown under anaerobic conditions, 10 microliters of Proteus mirabilis was taken from a TSB culture prepared as described above and inoculated into a 10 mL volume of a freshly made 9:1 (by volume) pooled adult female urine:TSB mixture into a 15 mL conical tube. The tube was purged with nitrogen and a screw cap tightly closed, and then was held stationary overnight at 37° C. to grow the bacteria.\nUpon completion of the respective incubation periods of the samples, optical density measurements of each sample were taken as described above and ammonia production of the growth solutions was measured using an ammonia combination probe (Beckman, Fullerton, Calif.) by record mV using an Orion pH meter (Orion, Boston, Mass.). Orion ammonia standards (Orion) were used to calibrate the instrument.\n(§2) In this Example, six different samples were prepared for analysis. The first sample comprised a urine:TSB mixture that was prepared in the same manner as that described in Example 1. […] The tube was loosely fitted with a screw cap, and held stationary at 37° C. overnight to grow the bacteria. […] The fifth sample comprising urine:TSB:Proteus mirabilis (facultatively grown) was prepared in the same manner as that described in Example 1."}, "[2]": {"system": "Proteus mirabilis (ATCC 29906)", "assay": "Bacterial yield of facultatively grown Proteus mirabilis in urine:TSB (from optical density)", "assay_type": "cell-based", "settings": "for Bacterial Yields: facultative", "protocol": "(§3) Proteus mirabilis (ATCC 29906) were recovered from frozen state by growing the appropriate bacterial coated MicroBank Bead (Pro Lab, Austin Tex.) in 10 mL trypticase soy broth (TSB, Difco, Ann Arbor, Mich.) in a 15 mL sterile loosely tightened screw capped conical tube overnight at 37° C. The tube was held stationary. (E. coli (ATCC 8739), utilized in Example 6 herein, was recovered using the same procedure described herein for Proteus mirabilis). Upon observation of turbidity, the bacterial suspension was checked for purity by isolation plate and Gram stain. Once determined that the isolate was Proteus mirabilis (or E. coli in Example 6), a colony from the isolation plate was transferred to 10 mL of TSB in a 15 mL sterile screw capped conical tube and incubated overnight at 37° C. under facultative conditions. Samples of bacterial suspension resulting from this overnight TSB culture were used to initiate all experiments utilizing Proteus mirabilis bacteria (or E. coli in Example 6).\nas §1\nIn this Example, five samples were prepared and analyzed to determine: (1) Bacterial Yield (CFU/mL) calculated from optical density; (3) Percent viability of EPIOCULAR; and (4) EPIOCULAR IL-8. The samples included: (1) Deionized Water; (2) A urine:TSB mixture (9:1 by volume) as described above; (3) A urine:TSB mixture containing Proteus mirabilis bacteria grown under aerobic conditions as described above; (4) A urine:TSB mixture containing Proteus mirabilis bacteria grown under facultative conditions as described above; and (5) A urine:TSB mixture containing Proteus mirabilis bacteria grown under anaerobic conditions as described above.\nas §2"}, "E. coli (ATCC 8739)": {"system": "E. coli (ATCC 8739)", "assay": "Bacterial yield of facultatively grown E. coli in urine:TSB", "assay_type": "cell-based", "settings": "Table 6, facultative E. coli in urine:TSB", "protocol": "as §3\nThe four samples were prepared identically to the four samples in Example 5 with the exception that facultatively grown E. coli was utilized as the bacteria in place of the Proteus mirabilis bacteria. The process for growing facultatively grown E. coli is set forth in Example 1.\nAfter incubation, each sample was analyzed for EPIOCULAR viability and bacterial cell count as set forth in Example 1. […]"}, "interleukin-8 (IL-8)": {"system": "interleukin-8 (IL-8)", "assay": "IL-8 release by EPIOCULAR skin culture challenged with sample", "assay_type": "cell-based, human", "settings": "for IL-8: Table 5, 6 hours; for IL-8 (n = 3): Table 6", "text": "In order to evaluate the amount of skin irritation by various samples prepared in the Examples, a human skin culture was selected to model the response of the human epidermis to treated and untreated bacterial metabolized urine:TSB mixture. The tissue model selected was an EPIOCULAR Tissue Model (OCL-200 propagated without hydrocortisone), and was purchased from MatTek Corporation (Ashland, Mass.). This model consists of normal, human-derived epidermal keratinocytes, which have been cultured to form a stratified, squamous epithelium similar to that found in the cornea. The epidermal cells, which are cultured on specially prepared cell culture inserts using a serum free medium, differentiate to form a multi-layered structures which closely parallel the corneal epithelium. Experiments using this skin culture were conducted in six parallel wells. Each well contained one milliliter of pre-warmed media that was the same as the model skin culture media. The plates were then incubated in a 37° C., 5% carbon dioxide atmosphere for thirty minutes. After incubation, 25 microliters of the sample were applied to the surface of the model skin culture after removing any residual media. After application of the test solution, the well plates were incubate for 6 hours in the 37° C., 5% carbon dioxide atmosphere. At the end of 6 hours, the well plates were removed from the incubator and the underlying media removed and stored at −80° C. The response of the skin culture to test the compositions/control and the insult solution is determined by measuring the amount of interleukin-1 alpha (IL-1a) and/or interleukin-8 (IL-8). IL-1a and IL-8 were quantified using an Interleukin-1 alpha or Interleukin-8 Quantikine Kit available from R&D Systems (Minneapolis, Minn.)."}, "[3]": {"settings": "Table 4, 5% mannitol peroxide, facultative"}, "[4]": {"settings": "Table 4, 10% mannitol peroxide, facultative"}, "[5]": {"settings": "Table 7, 5% mannitol peroxide, facultative"}},
  "data": [
    {"substance": "mannitol peroxide", "values": [
      {"measurement": "Ammonia/Cell", "setting": "[1]; Table 3, 5% (w/v) mannitol peroxide, facultative bacteria", "value": 1.6, "unit": "ppm/CFU E+8"},
      {"measurement": "Ammonia Produced (n = 3)", "setting": "[1]; Table 3, 5% (w/v) mannitol peroxide, urine:TSB, facultative bacteria", "value": "34.5 ± 12.6", "unit": "ppm"},
      {"measurement": "Ammonia/Cell", "setting": "[1]; Table 3, 10% mannitol peroxide, facultative bacteria", "value": 0.01, "unit": "ppm/CFU E+8"},
      {"measurement": "Ammonia Produced (n = 3)", "setting": "[1]; Table 3, 10% mannitol peroxide, urine:TSB, facultative bacteria", "value": "13.9 ± 0.3", "unit": "ppm"},
      {"measurement": "Ammonia (n = 3)", "setting": "[1]; [3]", "value": "34.5 ± 12.6", "unit": "ppm"},
      {"measurement": "Ammonia/Cell", "setting": "[1]; [3]", "value": 1.6, "unit": "ppm/CFU E+8"},
      {"measurement": "% Reduction of Ammonia", "setting": "[1]; Table 4, 5% mannitol peroxide", "value": 53.6, "unit": "%"},
      {"measurement": "Ammonia (n = 3)", "setting": "[1]; [4]", "value": "13.9 ± 0.3", "unit": "ppm"},
      {"measurement": "Ammonia/Cell", "setting": "[1]; [4]", "value": 0.01, "unit": "ppm/CFU E+8"},
      {"measurement": "% Reduction of Ammonia", "setting": "[1]; Table 4, 10% mannitol peroxide", "value": 98.5, "unit": "%"},
      {"measurement": "Ammonia Produced (n = 3)", "setting": "[1]; [5]", "value": "434.5 ± 7.5", "unit": "ppm"},
      {"measurement": "Ammonia/Cell", "setting": "[1]; [5]", "value": 43.84, "unit": "ppm/10E8CFU"},
      {"measurement": "impact on the growth of the cells", "setting": "[2]; 5% and 10% mannitol peroxide, facultative Proteus mirabilis (Table 4)", "value": "very little, if any, impact on the growth of the cells"},
      {"measurement": "Bacterial Yields", "setting": "[2]; Table 3, 5% (w/v) mannitol peroxide, urine:TSB, 37° C. overnight", "value": "1.30E+9", "unit": "CFU/mL"},
      {"measurement": "Bacterial Yields", "setting": "[2]; Table 3, 10% mannitol peroxide, urine:TSB, 37° C. overnight", "value": "8.20E+8", "unit": "CFU/mL"},
      {"measurement": "Bacterial Yields", "setting": "[2]; Table 4, 5% mannitol peroxide", "value": "1.30E+9", "unit": "CFU/mL"},
      {"measurement": "Bacterial Yields", "setting": "[2]; Table 4, 10% mannitol peroxide", "value": "8.2E+8", "unit": "CFU/mL"},
      {"measurement": "Bacterial Yields", "setting": "[2]; Table 5, 5% (w/v) mannitol peroxide", "value": "1.30E+9", "unit": "CFU/mL"},
      {"measurement": "Bacterial Yields", "setting": "[2]; Table 5, 10% (w/v) mannitol peroxide", "value": "8.20E+8", "unit": "CFU/mL"},
      {"measurement": "Bacterial Yields", "setting": "[2]; Table 7, 5% mannitol peroxide", "value": "8.93E+8", "unit": "CFU/mL"},
      {"measurement": "Bacterial Yields", "setting": "E. coli (ATCC 8739); 5% MP", "value": "2.14E+9", "unit": "CFU/mL"},
      {"measurement": "Bacterial Yields", "setting": "E. coli (ATCC 8739); 10% MP", "value": "4.98E+9", "unit": "CFU/mL"},
      {"measurement": "IL-8", "setting": "interleukin-8 (IL-8); facultative Proteus mirabilis grown with 5% mannitol peroxide", "value": "27224.30 ± 2432.83", "unit": "pg/mL"},
      {"measurement": "IL-8", "setting": "interleukin-8 (IL-8); facultative Proteus mirabilis grown with 10% mannitol peroxide", "value": "15884.57 ± 839.53", "unit": "pg/mL"},
      {"measurement": "IL-8 (n = 3)", "setting": "interleukin-8 (IL-8); facultative E. coli grown with 5% MP", "value": "1769.31 ± 103.9", "unit": "pg/mL"},
      {"measurement": "IL-8 (n = 3)", "setting": "interleukin-8 (IL-8); facultative E. coli grown with 10% MP", "value": "1336.69 ± 60.84", "unit": "pg/mL"}
    ]}
  ]
}
